According to a melting point compilation (Tetko et al.; mined from patent text by program, amines drawn as free bases though some values may be those of a salt):

Compound | melting point [°C]
COc1c(F)c(F)c([N+](=O)[O-])c2c(=O)c(C(=O)O)cn(C3CC3)c12 | 216 to 221
CC(C)C(=O)N[C@@H](CSC(=O)c1ccccc1)C(=O)NCCSC(=O)C(C)(C)C | 123 to 124
CCC(=O)OC1=CC(=O)CC(NC(=O)N(C)C)C1 (stereo not given) | 69 to 74
O=c1oc(-c2ccccc2)cc(O)c1C(CC1CC1)SC1CCCCC1 (stereo not given) | 69 to 71
O=C1C(Cl)=C(C2CCCCC2)C(=O)c2ccccc21 | 150 to 151
CC(=O)C(=Cc1cccnc1)C(C)=O | 52 to 57
Cc1nc(-c2ccc(OCC(C)(C)C)c(I)c2)sc1C(=O)O | 194 to 195
O/N=C\c1cccc(Cl)c1 | 64 to 66
COc1cc(COc2cccc3c2CN(C2CCC(=O)NC2=O)C3=O)ccc1OCCN1CCCC1 (stereo not given) | 160 to 162
CON=C(C#N)C(=O)NC(=O)NCCCCCC(=O)OC | 91
Nc1scc2c1C(=O)c1c-2ccc(Cl)c1Cl | 254 to 255
CCCCc1ccc(CCCCC(N)(CO)CO)cc1 | 92 to 94
C#CCOc1ccc([N+](=O)[O-])cc1 | 108 to 110
CCOc1cc(OCC)nc(N2CCN(Cc3ccc(CNC(C)=O)cc3)CC2)n1 | 119 to 120
CC(C)Nc1cccnc1N1CCN(C(=O)c2ccc(C(=O)N3CCN(C4CCCC4)CC3)cc2)CC1 | 181 to 182
O=C1NCC(c2ccc(F)cc2)N1CCCCS (stereo not given) | 102 to 104
CC(C)(C(N)=O)c1cccc(Cn2ccnc2)c1 | 79 to 82
CC(=O)N1C(C(=O)NC2CCC(O)CC2)C(c2cccc(Cl)c2F)C2(C(=O)Nc3cc(Cl)ccc32)C1CC(C)(C)C (stereo not given) | 220
COc1ccc2c(c1OC)CCC1=C2CCC(=O)N1 | 231
O=S(=O)(CCCl)c1ccc(Cl)cc1 | 91
CCc1nccn2c(-c3ccnc(NCC(C)(C)O)n3)c(-c3ccc(F)cc3F)nc12 | 164 to 165
CCc1c(CC(=O)O)ccc(OC)c1OC | 89 to 90
CC(C)N1C(=O)C(C(N)=O)N(c2cc(Cl)cc(Cl)c2)C1=O (stereo not given) | 200
CCOC(=O)c1cc2ccc(C)c(NS(=O)(=O)c3cccs3)c2[nH]1 | 184 to 185
CC(C)(C)OC(=O)NNC1C2CC3CC(C2)CC1C3 (stereo not given) | 90 to 92
Cc1nnc2n1-c1ccccc1C(c1ccc(Cl)cc1)=NC2NN(C(=O)NN)c1ccccc1 (stereo not given) | 175 to 177
CC(=O)NC[C@H]1CN(c2ccc(N3CCC(F)(COS(C)(=O)=O)CC3)c(F)c2)C(=O)O1 | 182 to 183

Compound | melting point [°C]
COc1cc(Cc2cnc(N)nc2NC(C)=O)cc(OC)c1C(C)(C)O | 214 to 216
COC(=O)Cn1cc([C@H]2CCC3C4CC=C5C[C@@H](O)CC[C@]5(C)C4CC[C@@]32C)nn1 (stereo not given in full) | 221 to 223
CON1CCC2(CC1)NC(=O)C(c1cc(C)ccc1C)=C2O | 176 to 177
CS(=O)(=O)N1CCCn2c(nc3c(N)nc4cccnc4c32)C1 | > 250
CCCc1nn(C)c2c1N=C(c1cc(/C=C/C(=O)N(C)C)ccc1OCC)NC2 | 219 to 221
COc1cc(C(=O)NNC(=N)N)c(OC)cc1C | 193
O=C(O)Cc1ccc(C(=O)c2cccc(C(F)(F)F)c2)s1 | 120
CCOCc1cc2cc(Cl)ccc2oc1=O | 100 to 101
CC(C)C(c1ccc(CC(N)=O)cc1)n1ccnc1 (stereo not given) | 244
CC(C)N1CC=C(c2c[nH]c3ccccc23)CC1 | 178
O=c1[nH]c(=O)n(C2CC(O)C(CO)O2)cc1-c1ccccn1 (stereo not given) | 201 to 203
COC(=S)NC1(N=NC(C)(C)C)CCCCC1 | 79 to 82
OCC1Cc2c(c(Cl)cc3c(-c4c(F)cccc4F)noc23)O1 (stereo not given) | 166 to 169
CCCCC/C(=C\C=C\C(=O)O)c1ccc(F)cc1 | 116 to 118
COc1ccc(N2C[C@@H](COS(C)(=O)=O)OC2=O)cc1 | 234 to 236
CCOC(=O)C(=O)Nc1cccc(C)n1 | 61 to 63
CC1(C)CCSc2ccc(CC#Cc3ccc(C(=O)O)c(O)c3)cc21 | 195 to 196
O=C(O)CCCCC(Cc1ccc(F)cc1)C(=O)O (stereo not given) | 80 to 81
CC(=O)C1=CC(C)(C)C=CC1 | 27 to 30
Cc1ncncc1C(=O)Nc1ccc(-n2nc(C(F)(F)F)cc2C2CC2)c(F)c1 | 101 to 103
CC(C)(C)n1cc(C#N)c2cc([N+](=O)[O-])cnc21 | 216 to 218
CC(=O)c1ccc(/C=C(\C)c2ccc3c(c2)C(C)(C)CC3(C)C)cc1 | 130 to 131
O=[N+]([O-])c1cnn(-c2c(Cl)cc(C(F)(F)F)cc2Cl)c1Br | 96
CN1C(=O)C(Cl)=C(C#N)C1=O | 141 to 143
Fc1ccc(-c2ncn(CC3CC3)c2-c2ccncc2)cc1 | 162
CSc1ncc(Cl)cc1C#N | 147 to 149

More lines, now with the values ahead:

melting point [°C] | Compound
122 | COc1ccc(S(=O)(=O)C(C)(Cc2ccc(OCCCN3CCN(c4cccc(Cl)c4)CC3)cc2)C(=O)NO)cc1 (stereo not given)
132 to 134 | CCON=C(C(C)=NO)c1ccc(OC(C)c2ccc(Cl)cc2)cc1 (stereo not given)
162 to 164 | COc1cc(NC(=O)Nc2ccc(Oc3ccncc3)cc2)cc(C(F)(F)F)c1
167 to 169 | Cn1c(C(F)(F)F)cc(=O)n(-c2ccc(OCc3ccc(Cl)cc3)cc2)c1=O
154 | CC(C)CC(=O)OC1c2ccccc2C(=O)N1c1ccc2ccc(Cl)nc2n1 (stereo not given)
70 | CS(=O)(=O)Nc1ccc(NCC(=O)N2CCC(Cc3ccc(Cl)cc3)CC2)cc1
261 to 262 | O=C(O)c1ccc2c(=O)c3ccccc3ccc2c1
130 to 132 | Cc1oc(-c2ccccc2)nc1COc1ccc(CON=C(CCCCC(=O)NS(C)(=O)=O)c2ccccc2)cc1
128 | CC(C)NCC(O)COC1c2ccccc2C(=O)N1c1cccc(Cl)c1 (stereo not given)
158 to 161 | Nc1ccc(C(=O)N2Cc3ccccc3Cc3ccccc32)c(Cl)c1
165 to 166 | O=C(O)COc1cccc2c1CCc1sc(OCCC(c3ccccc3)c3ccccc3)nc1-2
155 to 160 | COc1ccc(C(=O)Nc2ccc(C)c(C)c2)cc1NC(=S)Nc1cccc(C)c1
318 | CC(C)(C)c1ccc(-c2cc3ccc(C(=O)O)cc3s2)cc1
145 to 148 | Cc1ccccc1-c1ccc(C(=O)N2Cc3cccn3Cc3ccccc32)cc1C
158 to 159 | COc1cc2c(cc1OCc1ccccc1)CCN(C(=O)c1ccc(C#N)cc1)C2=O
261 | O=C(Oc1ccc(OC(=O)c2ccc(O)c(O)c2)c2ccccc12)c1ccc(O)c(O)c1
120 to 130 | FC(F)(F)Oc1ccc(C2N=C(Nc3cccc(-c4cncnc4)c3)n3ccnc32)cc1 (stereo not given)
238 | Oc1ccc(Sc2cnnc3ccccc23)cc1
> 180 | O=C(O)Cn1c(=O)c(=O)[nH]c2ccc3ccc(-n4cccc4CNC(=O)c4ccccc4)cc3c21
181 to 182 | Oc1ccc(-n2c(-c3ccccc3)cc3c2CCCC3)cc1
200 to 210 | CNC(=O)CSC(c1ccccc1)(c1ccccc1)c1ccccc1
221 to 222 | CCn1c(=O)c2[nH]c(C(C)C)nc2n(Cc2ccc(Cl)cc2)c1=O
203 to 204 | O=Cc1ccc(-c2ccc(O)cc2)c2ccsc12
125 to 127 | CS(=O)(=O)c1ccc(Oc2ccccc2CC(=O)O)cc1

melting point [°C] | Compound
186 to 189 | COc1ccc(N2CCN(CC(=O)Nc3nc(-c4ccccc4)cs3)CC2)cc1
129 | O=c1[nH]c2ccccc2n1CC1CCN(CC(O)COc2ccc(Cl)cc2)C1 (stereo not given)
123 to 124 | CSCCNC(=O)c1cccc(-c2cccc(Oc3cc(Cl)cc(Cl)c3)n2)c1
154 to 157 | Cc1ccc(CC2(O)CCN(CC3=Cc4ccc(O)cc4C3)CC2)cc1
169 to 170 | CC(C)n1nc(-c2sc(C(=O)NN(C)C)nc2-c2ccc(F)cc2)ccc1=O
200 | CN(C)c1ccc([N+](=O)[O-])c(C(=O)NCC2CCN(C(c3ccccc3)c3ccccc3)CC2)c1
124 to 125 | CCn1cc(-c2ccccc2)c(=O)c(-c2ccccc2)n1
120 to 122 | CN(C)CCOc1ccc(Nc2nccc(-c3ccncc3)n2)cc1
83 | CC(C)(C)OC(=O)[C@@H]1CC[C@@H]2CN1C(=O)N2OCc1ccccc1
68 to 70 | Cc1cccc(SC2=C(O)CC(CCc3ccccc3)(c3ccccc3)OC2=O)c1 (stereo not given)
74 to 83 | CC(C)OC(=O)C1CCCN1S(=O)(=O)c1ccc(N2CCC(NCC(O)COc3cccc4[nH]c(=O)[nH]c34)CC2)cc1 (stereo not given)
198 | Cn1c(-c2ccc(Cl)cc2)nc2cc(CN3CCN(C(c4ccccc4)c4ccccc4)CC3)ccc21
108 | CCOC(=O)c1ccc(C#CC(O)c2cccc3c2C(C)(C)CCS3)cc1 (stereo not given)
75.8 to 77.2 | O=C(c1ccccc1)c1c(F)ccc([N+](=O)[O-])c1F
128 to 130 | CC(C)(Oc1ccc(OCc2cccc3c2cnn3-c2ccc(C(F)(F)F)cc2)cc1)C(=O)O
88 to 94 | CC(C#N)c1cccc(C(=O)c2ccccc2)c1 (stereo not given)
218 to 224 | Cn1nc(-c2cccc(-n3ncc4cc(C(C)(C)C)cc(F)c4c3=O)c2CO)cc(Nc2cnc([C@H](O)CO)cn2)c1=O
215 | COc1ccc(CN2C(=O)C(O)(c3ccncc3Cl)c3cc(Cl)ccc32)c(OC)c1 (stereo not given)
172 to 175 | CN1CCC(=C2c3ccc(Cl)cc3C(=NO)Cc3cccnc32)CC1
257 | O=C(Nc1cccc(S(=O)(=O)NCC(F)(F)F)c1)c1cnn2c(C(F)F)cc(-c3ccc(C(F)(F)F)cc3)nc12
200 to 201 | CC(C)Cn1c(C(=O)O)c(-c2ccc(Cl)cc2)c2cc(OCc3ccccc3)ccc2c1=O
181 to 184 | O=C(O)Cc1ccc2c(c1)C(=O)Cc1cccnc1O2
107 to 108 | O=C(N[C@H]1CCN(CCc2ccc(F)cc2)C1)C(c1ccccc1F)c1ccccc1F
